Assay results published in ChEMBL document CHEMBL4414672, “Synthesis of certain benzothieno[3,2-d]pyrimidine derivatives as a selective SIRT2 inhibitors” (Eur J Med Chem, 2020).

Legend:
Type in all cases: functional
CCRF-CEM = test: Growth inhibition of human CCRF-CEM cells at 10^-5 M incubated for 48 hrs by sulforhodamine B assay; details: read-out: GI
HL-60(TB) = test: Growth inhibition of human HL-60(TB) cells at 10^-5 M incubated for 48 hrs by sulforhodamine B assay; details: HL-60, 48 h, read-out: GI
MOLT-4 = test: Growth inhibition of human MOLT4 cells at 10^-5 M incubated for 48 hrs by sulforhodamine B assay; details: MOLT-4, 48 h, read-out: GI
A549 = test: Growth inhibition of human A549/ATCC cells at 10^-5 M incubated for 48 hrs by sulforhodamine B assay; details: A549, 48 h, read-out: GI
EKVX = test: Growth inhibition of human EKVX cells at 10^-5 M incubated for 48 hrs by sulforhodamine B assay; details: read-out: GI
HOP-62 = test: Growth inhibition of human HOP62 cells at 10^-5 M incubated for 48 hrs by sulforhodamine B assay; details: HOP-62, 48 h, read-out: GI
NCI-H226 = test: Growth inhibition of human NCI-H226 cells at 10^-5 M incubated for 48 hrs by sulforhodamine B assay; details: NCI-H226, 48 h, read-out: GI
NCI-H460 = test: Growth inhibition of human NCI-H460 cells at 10^-5 M incubated for 48 hrs by sulforhodamine B assay; details: NCI-H460, 48 h, read-out: GI
NCI-H522 = test: Growth inhibition of human NCI-H522 cells at 10^-5 M incubated for 48 hrs by sulforhodamine B assay; details: NCI-H522, 48 h, read-out: GI
COLO 205 = test: Growth inhibition of human COLO205 cells at 10^-5 M incubated for 48 hrs by sulforhodamine B assay; details: COLO 205, 48 h, read-out: GI
HCC 2998 = test: Growth inhibition of human HCC2998 cells at 10^-5 M incubated for 48 hrs by sulforhodamine B assay; details: HCC 2998, 48 h, read-out: GI
HCT-116 = test: Growth inhibition of human HCT116 cells at 10^-5 M incubated for 48 hrs by sulforhodamine B assay; details: HCT-116, 48 h, read-out: GI
HCT-15 = test: Growth inhibition of human HCT15 cells at 10^-5 M incubated for 48 hrs by sulforhodamine B assay; details: HCT-15, 48 h, read-out: GI
HT-29 = test: Growth inhibition of human HT-29 cells at 10^-5 M incubated for 48 hrs by sulforhodamine B assay; details: HT-29, 48 h, read-out: GI
KM12 = test: Growth inhibition of human KM12 cells at 10^-5 M incubated for 48 hrs by sulforhodamine B assay; details: KM12, 48 h, read-out: GI
SW-620 = test: Growth inhibition of human SW620 cells at 10^-5 M incubated for 48 hrs by sulforhodamine B assay; details: SW-620, 48 h, read-out: GI
SF-268 = test: Growth inhibition of human SF268 cells at 10^-5 M incubated for 48 hrs by sulforhodamine B assay; details: SF-268, 48 h, read-out: GI
SF-295 = test: Growth inhibition of human SF295 cells at 10^-5 M incubated for 48 hrs by sulforhodamine B assay; details: SF-295, 48 h, read-out: GI
SNB-75 = test: Growth inhibition of human SNB75 cells at 10^-5 M incubated for 48 hrs by sulforhodamine B assay; details: SNB-75, 48 h, read-out: GI
U-251 = test: Growth inhibition of human U251 cells at 10^-5 M incubated for 48 hrs by sulforhodamine B assay; details: U-251, 48 h, read-out: GI
LOX IMVI = test: Growth inhibition of human LOXIMVI cells at 10^-5 M incubated for 48 hrs by sulforhodamine B assay; details: read-out: GI
MDA-MB-435 = test: Growth inhibition of human MDA-MB-435 cells at 10^-5 M incubated for 48 hrs by sulforhodamine B assay; details: MDA-MB-435, 48 h, read-out: GI
SK-MEL-28 = test: Growth inhibition of human SK-MEL-28 cells at 10^-5 M incubated for 48 hrs by sulforhodamine B assay; details: SK-MEL-28, 48 h, read-out: GI
SK-MEL-5 = test: Growth inhibition of human SK-MEL-5 cells at 10^-5 M incubated for 48 hrs by sulforhodamine B assay; details: SK-MEL-5, 48 h, read-out: GI
UACC-257 = test: Growth inhibition of human UACC257 cells at 10^-5 M incubated for 48 hrs by sulforhodamine B assay; details: UACC-257, 48 h, read-out: GI
IGROV-1 = test: Growth inhibition of human IGROV1 cells at 10^-5 M incubated for 48 hrs by sulforhodamine B assay; details: IGROV-1, 48 h, read-out: GI
OVCAR-4 = test: Growth inhibition of human OVCAR4 cells at 10^-5 M incubated for 48 hrs by sulforhodamine B assay; details: OVCAR-4, 48 h, read-out: GI
OVCAR-5 = test: Growth inhibition of human OVCAR5 cells at 10^-5 M incubated for 48 hrs by sulforhodamine B assay; details: OVCAR-5, 48 h, read-out: GI
NCI/ADR-RES = test: Growth inhibition of human NCI/ADR-RES cells at 10^-5 M incubated for 48 hrs by sulforhodamine B assay; details: read-out: GI
786-0 = test: Growth inhibition of human 786-0 cells at 10^-5 M incubated for 48 hrs by sulforhodamine B assay; details: 786-0, 48 h, read-out: GI
ACHN = test: Growth inhibition of human ACHN cells at 10^-5 M incubated for 48 hrs by sulforhodamine B assay; details: read-out: GI
CAKI-1 = test: Growth inhibition of human Caki1 cells at 10^-5 M incubated for 48 hrs by sulforhodamine B assay; details: CAKI-1, 48 h, read-out: GI
UO-31 = test: Growth inhibition of human UO31 cells at 10^-5 M incubated for 48 hrs by sulforhodamine B assay; details: UO-31, 48 h, read-out: GI
DU-145 = test: Growth inhibition of human DU145 cells at 10^-5 M incubated for 48 hrs by sulforhodamine B assay; details: DU-145, 48 h, read-out: GI
MCF7 = test: Growth inhibition of human MCF7 cells at 10^-5 M incubated for 48 hrs by sulforhodamine B assay; details: MCF7, 48 h, read-out: GI
Hs-578T = test: Growth inhibition of human Hs 578T cells at 10^-5 M incubated for 48 hrs by sulforhodamine B assay; details: read-out: GI
BT-549 = test: Growth inhibition of human BT549 cells at 10^-5 M incubated for 48 hrs by sulforhodamine B assay; details: BT-549, 48 h, read-out: GI
MDA-MB-468 = test: Growth inhibition of human MDA-MB-468 cells at 10^-5 M incubated for 48 hrs by sulforhodamine B assay; details: MDA-MB-468, 48 h, read-out: GI

Compound	inhibition of growth at 10 µM (CCRF-CEM)	inhibition of growth at 10 µM (HL-60(TB))	inhibition of growth at 10 µM (MOLT-4)	inhibition of growth at 10 µM (A549)	inhibition of growth at 10 µM (EKVX)	inhibition of growth at 10 µM (HOP-62)	inhibition of growth at 10 µM (NCI-H226)	inhibition of growth at 10 µM (NCI-H460)	inhibition of growth at 10 µM (NCI-H522)	inhibition of growth at 10 µM (COLO 205)	inhibition of growth at 10 µM (HCC 2998)	inhibition of growth at 10 µM (HCT-116)	inhibition of growth at 10 µM (HCT-15)	inhibition of growth at 10 µM (HT-29)	inhibition of growth at 10 µM (KM12)	inhibition of growth at 10 µM (SW-620)	inhibition of growth at 10 µM (SF-268)	inhibition of growth at 10 µM (SF-295)	inhibition of growth at 10 µM (SNB-75)	inhibition of growth at 10 µM (U-251)	further results
O=C1/C(=C\c2cccc([N+](=O)[O-])c2)Sc2ccc(Cl)cc21	-0.32%	-10.8%	2.66%	-6.89%	4.33%	-0.47%	5.97%	-5.14%	25.8%	-6.01%	-36.5%	45.9%	6.13%	-3.12%	-2.29%	2.49%	7.22%	-3.16%	12.3%	13.8%	inhibition of growth at 10 µM (LOX IMVI): 8.68%; inhibition of growth at 10 µM (MDA-MB-435): 35.4%; inhibition of growth at 10 µM (SK-MEL-28): -11.7%; inhibition of growth at 10 µM (SK-MEL-5): 8.13%; inhibition of growth at 10 µM (UACC-257): -6.4%; inhibition of growth at 10 µM (IGROV-1): 19.9%; inhibition of growth at 10 µM (OVCAR-4): 21.4%; inhibition of growth at 10 µM (OVCAR-5): -1.89%; inhibition of growth at 10 µM (NCI/ADR-RES): 7.92%; inhibition of growth at 10 µM (786-0): -1.44%; inhibition of growth at 10 µM (ACHN): 27%; inhibition of growth at 10 µM (CAKI-1): -4.55%; inhibition of growth at 10 µM (UO-31): 11.3%; inhibition of growth at 10 µM (DU-145): -3.94%; inhibition of growth at 10 µM (MCF7): 22.4%; inhibition of growth at 10 µM (Hs-578T): -8.12%; inhibition of growth at 10 µM (BT-549): 20.8%; inhibition of growth at 10 µM (MDA-MB-468): 13.1%
O=C1/C(=C\c2cccc(Br)c2)Sc2ccc(Cl)cc21	-14.5%	-5.53%	-5.33%	2.51%	-0.43%	3.1%	10.4%	-7.98%	5.63%	-6.12%	-3.41%	0.42%	-10.9%	-10.6%	-0.19%	-1.25%	2.33%	-0.53%	2.14%	-3.45%	inhibition of growth at 10 µM (LOX IMVI): 2.63%; inhibition of growth at 10 µM (MDA-MB-435): -14%; inhibition of growth at 10 µM (SK-MEL-28): -20.5%; inhibition of growth at 10 µM (SK-MEL-5): 1.63%; inhibition of growth at 10 µM (UACC-257): -6.58%; inhibition of growth at 10 µM (IGROV-1): -2.64%; inhibition of growth at 10 µM (OVCAR-4): -9.77%; inhibition of growth at 10 µM (OVCAR-5): -9.67%; inhibition of growth at 10 µM (NCI/ADR-RES): -2.33%; inhibition of growth at 10 µM (786-0): -3.61%; inhibition of growth at 10 µM (ACHN): 3.66%; inhibition of growth at 10 µM (CAKI-1): 10.1%; inhibition of growth at 10 µM (UO-31): -29.1%; inhibition of growth at 10 µM (DU-145): -12.3%; inhibition of growth at 10 µM (MCF7): -12.3%; inhibition of growth at 10 µM (Hs-578T): -8.14%; inhibition of growth at 10 µM (BT-549): -26.2%; inhibition of growth at 10 µM (MDA-MB-468): -18.6%
O=C1/C(=C\c2ccccc2O)Sc2ccc(Cl)cc21	-1.92%	-1.87%	11.4%	-0.44%	13.3%	5.99%	4.98%	-8.83%	5.61%	-5.97%	-25.6%	10%	-7.07%	-12.2%	-0.47%	-11.4%	5.86%	-6.81%	22.3%	-8.52%	inhibition of growth at 10 µM (LOX IMVI): 9.63%; inhibition of growth at 10 µM (MDA-MB-435): -5.13%; inhibition of growth at 10 µM (SK-MEL-28): -14.6%; inhibition of growth at 10 µM (SK-MEL-5): 4.61%; inhibition of growth at 10 µM (UACC-257): -1.33%; inhibition of growth at 10 µM (IGROV-1): 0.45%; inhibition of growth at 10 µM (OVCAR-4): 1.63%; inhibition of growth at 10 µM (OVCAR-5): -0.88%; inhibition of growth at 10 µM (NCI/ADR-RES): 6.5%; inhibition of growth at 10 µM (786-0): -0.39%; inhibition of growth at 10 µM (ACHN): 2.5%; inhibition of growth at 10 µM (CAKI-1): 15.9%; inhibition of growth at 10 µM (UO-31): -16%; inhibition of growth at 10 µM (DU-145): -12.3%; inhibition of growth at 10 µM (MCF7): -12.3%; inhibition of growth at 10 µM (Hs-578T): 3.91%; inhibition of growth at 10 µM (BT-549): -20.1%; inhibition of growth at 10 µM (MDA-MB-468): -4.1%
